As usually defined, the IC50 is the concentration needed to halve the response being measured. Low values mean greater potency in that assay, high ones weaker potency in that assay.

In PubChem BioAssay AID2305 (GlaxoSmithKline (GSK), 2010) one finds IC50 data, which are given here for 43 compounds.

Values joined by “and” are separate entries in the source; they are usually repeats but may differ in a detail not shown here. Equal values may be shown once.

In the experiment the test system is P. falciparum 3D7 growth, pLDH absorbance. Put plainly: P. falciparum 3D7 growth inhibition, dose response, strain 3D7 (AID 2305).

In the case of `O=C(Nc1ccc(OC2CCN(Cc3ccc(F)cc3)C2)c(Cl)c1)c1ccco1` (stereo not drawn), the IC50 was 190 nM.

The compound `Cc1cccc2[nH]c(-c3cccc(-c4cccc(CNCC5CCCO5)c4)c3)nc12` (stereo not drawn) registered an IC50 of 600 nM.

The compound `COc1ccc(CNC2CCN(C)CC2)cc1-c1ccc(S(=O)(=O)NC2CCC2)c(F)c1` had a half-maximal inhibitory concentration (IC50) of 840 nM.

`COc1cc2nc(C)nc(Nc3ccc(Cc4ccccc4)cc3)c2cc1OC` had a concentration for half-maximal inhibition (IC50) of 730 nM. The IC50 values of the last two compounds are within 1.5-fold of each other.

For `NS(=O)(=O)c1cncc(-c2ccc3nccc(-c4cn[nH]c4)c3n2)c1`, the IC50 was 530 nM.

As for `CN(C)CCNCc1ccc(-c2ccc3c(Nc4ccc(F)cc4Cl)ccnc3c2)o1`, the half-maximal inhibitory concentration (IC50) came to 140 nM.

Compound `O=C(CNC1CCCCC1)Nc1cccc(C(=O)Nc2cccc(C(F)(F)F)c2)c1` showed an IC50 of 420 nM.

Compound `O=C(NCCN1CCCC1)c1ccc(-c2ccc(-c3nc4ccccc4[nH]3)s2)cc1` registered an IC50 of 940 nM.

`CCCCc1ccc(NC(=O)Nc2cccc(CCNCc3ccccc3)c2)cc1`: the half-maximal inhibitory concentration (IC50) was 880 nM.

For `COc1ccc(CNCc2cccc(-c3cccc(-c4nc5ccc(F)cc5[nH]4)c3)c2)cc1`, the IC50 came out at 300 nM.

On to `CC(C)c1nc2c(N)nc(N)nc2nc1N`, for which the IC50 is 1310 nM. Against the preceding compound, the IC50 is about 4.4-fold higher.

On to `C/C=C/COc1ccc2ccccc2c1CNCCCCCCCCNCc1c(OC/C=C/C)ccc2ccccc12`, for which the IC50 stood at 910 nM. The IC50 values of the last two compounds are within 1.5-fold of each other.

`O=c1cc(NCCCNCc2ccc(Cl)c(Cl)c2)[nH]c2cc(Cl)ccc12` gave a half-inhibitory concentration (IC50) of 920 nM.

`c1cc(-c2ccc(CNC3CCOCC3)cc2)cc(-c2nc3ccccc3[nH]2)c1` displayed an IC50 of 770 nM.

As for `CN(c1ccc(NC(=O)c2cccc(F)c2)cc1)C1CCCN(Cc2cccc(O)c2)C1` (stereo not drawn), the IC50 amounted to 1300 nM.

As for `Cc1ccc2c(NN=Cc3cccc(F)c3)cc(C)nc2c1`, the IC50 stood at 860 nM.

`Cc1ccccc1C1CCN(C2CCC(NC(=O)/C=C/c3cccc(F)c3F)CC2)CC1` (stereo not drawn): the IC50 was 1150 nM.

Take `O=C(NCCCCN1CCC(c2ccc3c(c2OCC(O)c2ccc(Cl)cc2)CCCC3)CC1)c1ccc(-c2ccc(C(F)(F)F)cc2)cc1` (stereo not drawn): the IC50 is 1040 nM.

Compound `COc1ccc2nccc(N3CCC(CCNCc4cc5c(cn4)OCCO5)CC3)c2c1` returned an IC50 of 870 nM.

In turn, `Cc1ccc(Nc2nc(C)cc(Nc3cccc(C#N)c3)n2)cc1` registered an IC50 of 980 nM.

Regarding `CN1CCN(c2ccc(Nc3nc(N)c4ccn(C5CCC5)c4n3)cc2)CC1`, the IC50 amounted to 1220 nM.

For `CN=C(Nc1c(Cl)cccc1Cl)N(C)C`, the IC50 came to 820 nM.

The compound `Nc1nc(N)c2c(Sc3ccc(F)cc3)cccc2n1` showed an IC50 of 1070 nM.

As for `c1cc(CN2CCN(c3ccncc3)CC2)cc(-c2ccc(-c3nc4ccccc4[nH]3)s2)c1`, the concentration for half-maximal inhibition (IC50) came out at 150 nM.

The compound `COCCN1CCC(C(=O)NCC(C)(C)c2nc(-c3ccc(Br)c(O)c3)c(-c3ccncc3)[nH]2)CC1` returned a 50% inhibitory concentration (IC50) of 910 nM.

The compound `COc1cc(C(=O)N2[C@@H](c3nccs3)[C@@H](C(=O)N(OC)C(C)c3ccccc3)C[C@@]2(CC(C)C)C(=O)OC(C)(C)C)ccc1C(C)(C)C` (stereo partly drawn) had an IC50 of 1070 nM. This IC50 and that of the compound before are within 1.5-fold of each other.

`CCC1(C)CC(CCNCc2ccccc2O)(c2ccc(C)cc2)CCO1` (stereo not drawn) had an IC50 of 40 nM.

Regarding `Cc1cccc2[nH]c(=O)c([N+](=O)[O-])c(O)c12`, the half-inhibitory concentration (IC50) was determined as 910 nM.

On to `CCCCCCN1CCCN(Cc2ccc(C(=O)Nc3ccc(C(C)(C)C)cc3)cc2)CC1`, for which the IC50 stood at 740 nM.

As to `N#Cc1ccccc1C(=O)N(Cc1cncn1Cc1cccc(F)c1)CC1CC1`, the IC50 was 730 nM.

`N=C(N)c1ccc2nc(SCc3ccccc3)[nH]c2c1`: the IC50 came out at 690 nM.

For `COc1ccc(CC(=O)Nc2ccc(Nc3nc(C)cc(N4CCCC4)n3)cc2)cc1`, the IC50 was found to be 1110 nM.

Take `N#Cc1ccc(N2CCN(Cc3cccc(-c4cccc(-c5nc6ccc(F)cc6[nH]5)c4)c3)CC2)nc1`: the IC50 turned out to be 960 nM.

In the case of `COc1ccc(N2CCN(CCCCNC(=O)c3ccc(NC(=O)c4cc(C(F)(F)F)cc(C(F)(F)F)c4)cc3)CC2)c(OC)c1`, the IC50 is 150 nM.

Compound `COc1cc2nc(Nc3ccc(Oc4ccccc4)cc3)nc(Nc3ccc(Oc4ccccc4)cc3)c2cc1OC` returned an IC50 of 930 nM.

On to `Cc1c(C)c2c(c(C)c1O)CC[C@](C)(C(=O)NC1CCC(CN3CCC(c4c[nH]c5ccccc45)CC3)CC1)O2` (stereo partly drawn), for which the IC50 is 880 nM and 1120 nM.

Regarding `O=C(NC1CC1)c1ccc(Cn2c(SCc3cccc(Cl)c3)nc3ccccc3c2=O)cc1`, the IC50 was found to be 420 nM.

For the compound `O=S(=O)(c1cccc(Br)c1)N1CCCCC(c2ccc(C(F)(F)F)cc2)=N1`, the half-maximal inhibitory concentration (IC50) was 550 nM.

On to `CCC/C=C/c1c(CNCCCNc2cc(=O)c3ccccc3[nH]2)sc(CC)c1Br`, for which the IC50 is 890 nM.

Turning to `COc1ccc(C=Cc2cc(N)c3ccccc3n2)cc1`, the IC50 came to 970 nM.

The compound `OC1CCCN(Cc2cccc(-c3ccc(-c4nc5ccc(F)cc5[nH]4)cc3)c2)C1` (stereo not drawn) yielded an IC50 of 780 nM.

For the compound `O=C(/C=C/c1ccc(Cl)c(Cl)c1)NC1CCC(N2CCC(c3c[nH]c4ccccc34)CC2)CC1` (stereo not drawn), the half-inhibitory concentration (IC50) was 880 nM.

`COc1cccc2c(Nc3ccccc3C)nc(Nc3ccccc3C)nc12`: the IC50 worked out at 680 nM.
